EC50 and IC50 data for 32 compounds are collected here from patent US11760744B2, “Fused ring compounds” (Genentech, Inc., priority 2018, dated 2023).

The target of test [1] is T1, K-Ras G12C (Homo sapiens, UniProt P01116, G12C). Briefly: Western blot assay for in cell alkylation of K-Ras G12C (HCC1171 cells). Set-up: endogenous in cells; host or cells: HCC1171. The test is classed as cell-based. To be noted: 18 hours at 37° C., 7 point dose response. The procedure: Western Blot Assay for in Cell Alkylation of K-Ras G12C
HCC1171 cells were maintained in RPMI1640 supplemented with 10% FBS. Cells were plated in a 96-well plate at 20,000 cells/well and the following day compounds were added to the cells. After 18 hours at 37° C., cells were lysed in RIPA buffer (Sigma R0278) with 0.5% SDS and protease/phosphatase inhibitor cocktail. After through mixing to enable complete lysis, the lysates were cleared by centrifugation before 20 μl was transferred from each well and combined with loading buffer and reducing agent. After heating for 10 minutes at 95° C., 15 μl of each sample was loaded onto a 4-20% Tris-Glycine gel and electrophoresed at 110V for 165 minutes in SDS-PAGE running buffer. Gels were transferred to a nitrocellulose membrane, blocked for 1 hour and stained overnight at 4° C. with primary antibody against K-Ras (polyclonal Proteintech 12063-1-AP). The membrane was then washed thoroughly and counterstained with anti-rabbit IRDye 800CW (LI-COR 926-32211) for one hour at room temperature. After final washes, the membrane was imaged on a LI-COR Odyssey CLx at medium resolution. Alkylated K-Ras was visible by an electrophoretic shift from unmodified K-Ras. To quantify this affect, the LICOR software was used to draw a rectangle over alkylated and unalkylated bands for each well and measured the total fluorescent intensity (FI) in each of these bands. The following formula was then used to calculate % alkylation: FI(alkylated)/(FI(alkylated)+FI(unalkylated))*100 for each well.
A 7 point dose response curve was used to determine the IC50 for each compound. Cell alkylation data are presented below in Table 2.
On the technique in general: A western blot detects proteins with antibodies after separation by electrophoresis.
Target sequence in this assay (P01116 1-188 isoform P01116-2 G12C): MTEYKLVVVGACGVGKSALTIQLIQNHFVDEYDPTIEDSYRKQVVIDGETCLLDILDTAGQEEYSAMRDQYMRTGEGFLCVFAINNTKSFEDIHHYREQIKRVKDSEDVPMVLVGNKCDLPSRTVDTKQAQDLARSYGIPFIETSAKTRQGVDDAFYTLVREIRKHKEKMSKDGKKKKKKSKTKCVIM

Test [2] addresses T1, K-Ras G12C. The test is described as follows: K-Ras G12C, SOS1, Raf RBD HTRF assay for inhibition of GTP exchange. Set-up: K-Ras G12C (residues 2-188) and SOS1 (residues 564-1049) had N-terminal 6-His; made in house; host or cells: E. coli. To be noted: 18 hours preincubation with K-Ras G12C at room temperature; SOS1-mediated GTP exchange. It counts as biochemical. The method, then: K-Ras G12C, SOS1, Raf RBD Homogeneous Time Resolved Fluorescence (HTRF) Assay for Inhibition of GTP Exchange
After 18 hours at room temperature, the SOS1 GTP exchange factor (1.67 nM during exchange, 1.25 nM final) was added to initiate nucleotide exchange to GTP (200 μM during exchange, 150 μM final). The level of GTP exchange was assessed by addition of a Ras binding domain derived from C-Raf and the HTRF detection antibodies Tb-anti-FLAG and D2-anti-his (Cis-Bio) at 50 nM, 1 nM and 12.5 nM, respectively. After 2 hours, the ratio of 665 nm to 615 nm emission with 320 nm excitation was measured on an Envision plate reader (Perkin Elmer).
The final reaction volume was 20 μl in a ProxiPlate-384F Plus (Perkin Elmer), in buffer containing 20 mM HEPES, 150 mM NaCl, 1 mM MgCl2, 0.1% BSA, 0.03% Tween-20 and 1 mM DTT. […] HTRF data are presented below in Table 2.
Target sequence in this assay (P01116 2-188 isoform P01116-2 G12C): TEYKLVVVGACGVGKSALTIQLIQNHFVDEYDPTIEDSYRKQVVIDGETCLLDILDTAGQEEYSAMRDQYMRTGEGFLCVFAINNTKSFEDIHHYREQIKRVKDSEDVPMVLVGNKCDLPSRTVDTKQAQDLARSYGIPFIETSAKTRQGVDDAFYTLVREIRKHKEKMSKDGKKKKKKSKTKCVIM
Background: TR-FRET usually uses a lanthanide donor and a delayed reading to cut background.

On to `C=C(F)C(=O)N1CCN(c2nc(OC[C@@H]3CCCN3C)nc3c2CCC(c2cc(O)cc4ccccc24)C3)CC1CC#N` (mixture of isomers) [Example 61a, 2-(1-(2-fluoroacryloyl)-4-(7-(3-hydroxynaphthalen-1-yl)-2-(((S)-1-methylpyrrolidin-2-yl)methoxy)-5,6,7,8-tetrahydroquinazolin-4-yl)piperazin-2-yl)acetonitrile], for which the EC50 at K-Ras G12C [1] was 16 nM. Besides, 38 nM corresponded to half-maximal inhibition against K-Ras G12C [2] (IC50).

`CN1CCC[C@H]1COc1nc2c(c(N3CCN(C(=O)/C=C/CF)C(CC#N)C3)n1)CCC(c1cc(O)cc3ccccc13)C2` (mixture of isomers) [Example 62a, 2-(1-((E)-4-fluorobut-2-enoyl)-4-(7-(3-hydroxynaphthalen-1-yl)-2-(((S)-1-methylpyrrolidin-2-yl)methoxy)-5,6,7,8-tetrahydroquinazolin-4-yl)piperazin-2-yl)acetonitrile] had an EC50 on K-Ras G12C [1] of 14 nM. Also, the concentration for half-maximal inhibition (IC50) at K-Ras G12C [2] stood at 18 nM.

As to `C=CC(=O)N1CCN(c2ncnc3c2C[C@@H](C)[C@@H](c2nc(N)cc(C)c2C(F)(F)F)C3)CC1` (single isomer, unassigned) [Example 1a], a half-maximal response at K-Ras G12C [1] (EC50) required 10000 nM. Further, on K-Ras G12C [2], the IC50 was over 50000 nM.

Take `C=CC(=O)N1CCN(c2ncnc3c2C[C@H](C)[C@H](c2nc(N)cc(C)c2C(F)(F)F)C3)CC1` (single isomer, unassigned) [Example 1b]: on K-Ras G12C [1], the EC50 was determined as 10000 nM. The compound also gave an IC50 at K-Ras G12C [2] of over 50000 nM.

Consider `C=CC(=O)N1CCN(c2ncnc3c2CC[C@@H](c2nc(N)cc4ccccc24)C3)CC1` (single isomer, unassigned) [Example 3a], for which, at K-Ras G12C [1], the EC50 came to 30000 nM. At K-Ras G12C [2], this compound gave an IC50 of over 50000 nM.

In turn, `C=CC(=O)N1CCN(c2ncnc3c2CC[C@H](c2nc(N)cc4ccccc24)C3)CC1` (single isomer, unassigned) [Example 3b] displayed an EC50 on K-Ras G12C [1] of 5500 nM. For the same compound, the midpoint of inhibition on K-Ras G12C [2], the IC50, lay at 710 nM.

At K-Ras G12C [2], `C=CC(=O)N1CCN(c2ncnc3c2C[C@H](C)[C@@H](c2cc(CO)ccc2C)C3)CC1` (single isomer, unassigned) [Example 4a] registered an IC50 of over 50000 nM.

With `C=CC(=O)N1CCN(c2ncnc3c2C[C@@H](C)[C@H](c2cc(CO)ccc2C)C3)CC1` (single isomer, unassigned) [Example 4b], at K-Ras G12C [1], the EC50 was 1300 nM. On K-Ras G12C [2], this compound returned an IC50 of 390 nM.

`C=CC(=O)N1CCN(c2nc(OC[C@@H]3C[C@@H](F)CN3C)nc3c2C[C@H](C)[C@@H](c2nc(NC)cc(C)c2C(F)(F)F)C3)[C@@H](C)C1` (single isomer, unassigned) [Example 5a] showed an IC50 on K-Ras G12C [2] of over 20000 nM.

With `C=CC(=O)N1CCN(c2nc(OC[C@@H]3C[C@@H](F)CN3C)nc3c2C[C@@H](C)[C@H](c2nc(NC)cc(C)c2C(F)(F)F)C3)[C@@H](C)C1` (single isomer, unassigned) [Example 5b], on K-Ras G12C [1], it took 180 nM to reach a half-maximal effect (EC50). The compound further returned an IC50 on K-Ras G12C [2] of 45 nM.

At K-Ras G12C [2], `C=CC(=O)N1CCN(c2ncnc3c2CC[C@H](c2cccc4c2CCC4)C3)CC1` (single isomer, unassigned) [Example 6a] showed an IC50 of 2300 nM.

The compound `C=CC(=O)N1CCN(c2ncnc3c2CC[C@@H](c2cccc4c2CCC4)C3)CC1` (single isomer, unassigned) [Example 6b] came in with an IC50 on K-Ras G12C [2] of over 50000 nM.

In turn, `C=CC(=O)N1CCN(c2ncnc3c2C[C@H](C)[C@@H](c2nc(N)cc(C)c2C(F)(F)F)C3)CC1` (single isomer, unassigned) [Example 8a] yielded a 50% inhibitory concentration (IC50) on K-Ras G12C [2] of 3500 nM.

`C=CC(=O)N1CCN(c2ncnc3c2C[C@@H](C)[C@H](c2nc(N)cc(C)c2C(F)(F)F)C3)CC1` (single isomer, unassigned) [Example 8b] yielded an EC50 on K-Ras G12C [1] of 89 nM. Moreover, the midpoint of inhibition on K-Ras G12C [2], the IC50, lay at 45 nM.

In the case of `C=CC(=O)N1CCN(c2ncnc3c2CC[C@H](c2c(C)ccc4c2COC4)C3)CC1` (single isomer, unassigned) [Example 9a], half-maximal inhibition on K-Ras G12C [2] (IC50) required 4200 nM.

On K-Ras G12C [2], `C=CC(=O)N1CCN(c2ncnc3c2CC[C@@H](c2c(C)ccc4c2COC4)C3)CC1` (single isomer, unassigned) [Example 9b] had an IC50 of over 50000 nM.

Regarding `C=CC(=O)N1CCN(c2ncnc3c2CC[C@@H](c2c(C)c(C)cc4[nH]cnc24)C3)CC1` (single isomer, unassigned) [Example 10a], at K-Ras G12C [2], half-maximal inhibition (IC50) was put at 19000 nM.

In turn, `C=CC(=O)N1CCN(c2ncnc3c2CC[C@H](c2c(C)c(C)cc4[nH]cnc24)C3)CC1` (single isomer, unassigned) [Example 10b] showed a concentration giving a half-maximal response (EC50) at K-Ras G12C [1] of 1000 nM. This compound also displayed an IC50 against K-Ras G12C [2] of 270 nM.

On K-Ras G12C [2], `C=CC(=O)N1CCN(c2nc(OC[C@@H]3CCCN3C)nc3c2C[C@H](C)[C@@H](c2c(C)c(C)cc(N)c2F)C3)[C@@H](C)C1` (single isomer, unassigned) [Example 11a] returned an IC50 of 1300 nM.

With `C=CC(=O)N1CCN(c2nc(OC[C@@H]3CCCN3C)nc3c2C[C@@H](C)[C@H](c2c(C)c(C)cc(N)c2F)C3)[C@@H](C)C1` (single isomer, unassigned) [Example 11b], a half-maximal response on K-Ras G12C [1] (EC50) required 47 nM. This compound registered an IC50 at K-Ras G12C [2] of under 10 nM.

At K-Ras G12C [1], `C=CC(=O)N1CCN(c2nc(OC[C@@H]3CCCN3C)nc3c2C[C@H](C)[C@@H](c2c(F)c(N)cc(C)c2C(F)(F)F)C3)[C@@H](C)C1` (single isomer, unassigned) [Example 12a] registered an EC50 of 1100 nM. The compound also gave an IC50 on K-Ras G12C [2] of 610 nM.

`C=CC(=O)N1CCN(c2ncnc3c2CC[C@@H](c2c(F)c(N)cc(F)c2C(F)(F)F)C3)CC1` (single isomer, unassigned) [Example 13a] registered an IC50 at K-Ras G12C [2] of 2000 nM.

As for `CNC/C=C/C(=O)N1CCN(c2ncnc3c2C[C@H](C)[C@@H](c2c(C)ccc4[nH]ncc24)C3)CC1` (single isomer, unassigned) [Example 19b], on K-Ras G12C [2], the IC50 is over 30000 nM.

In the case of `C=CC(=O)N1CCN(c2nc(OC[C@@H]3C[C@@H](F)CN3C)nc3c2C[C@H](C)[C@@H](c2nc(N)cc(C)c2C2CC2)C3)[C@@H](C)C1` (single isomer, unassigned) [Example 24a], the IC50 against K-Ras G12C [2] is over 50000 nM.

For the compound `C=CC(=O)N1CCN(c2ncnc3c2CC[C@@H](c2c(F)c(N)cc(C)c2C(F)(F)F)C3)CC1` (single isomer, unassigned) [Example 27b], on K-Ras G12C [2], the IC50 was found to be 3000 nM.

With `C=CC(=O)N1CCN(c2nc(OC[C@@H]3C[C@H](F)CN3C)nc3c2CC[C@@H](c2cc(O)cc4ccccc24)C3)[C@@H](C)C1` (single isomer, unassigned) [Example 30b], half-maximal inhibition on K-Ras G12C [2] (IC50) required 1200 nM.

On to `C=CC(=O)N1CCN(c2ncnc3c2C[C@H](C)[C@@H](c2nc(N)ccc2C(F)(F)F)C3)CC1` (single isomer, unassigned) [Example 42a], for which, at K-Ras G12C [2], 2700 nM corresponded to half-maximal inhibition (IC50).

Regarding `C=CC(=O)N1CCN(c2ncnc3c2CC[C@@H](c2nc(N)ccc2C(F)(F)F)C3)CC1` (single isomer, unassigned) [Example 46a], the IC50 on K-Ras G12C [2] came to 2000 nM.

Turning to `C=C(F)C(=O)N1CCN(c2nc(OC[C@@H]3CCCN3C)nc3c2CCC(c2cccc4ccccc24)C3)CC1CC#N` (single isomer, unassigned) [Example 47b], the IC50 against K-Ras G12C [2] was 1500 nM.

In the case of `C=CC(=O)N1CCN(c2nc(OC[C@@H]3COC(=O)N3C)nc3c2CC[C@@H](c2cc(O)cc4ccccc24)C3)[C@@H](C)C1` (single isomer, unassigned) [Example 57b], the IC50 at K-Ras G12C [2] stood at 14000 nM.

`C=CC(=O)N1CCN(c2nc(OC[C@@H]3CCCN3C)nc3c2CCCC3)CC1` [Example 45a, 1-[4-[2-[[(2S)-1-methylpyrrolidin-2-yl]methoxy]-5,6,7,8-tetrahydroquinazolin-4-yl]piperazin-1-yl]prop-2-en-1-one] had an IC50 at K-Ras G12C [2] of over 50000 nM.

In the case of `C=CC(=O)N1CCN(c2nc(OCc3cn(C)cn3)nc3c2CCC(c2cc(O)cc4ccccc24)C3)[C@@H](C)C1` (stereo partly drawn) [Example 54a, 1-((3S)-4-(7-(3-hydroxynaphthalen-1-yl)-2-((1-methyl-1H-imidazol-4-yl)methoxy)-5,6,7,8-tetrahydroquinazolin-4-yl)-3-methylpiperazin-1-yl)prop-2-en-1-one], the IC50 at K-Ras G12C [2] was found to be 470 nM.

As usually defined, the EC50 is the concentration at which the effect is half-maximal. A high value points to weaker potency. As usually defined, the IC50 is the concentration at which inhibition is half-maximal. High values mean a need for much substance, low ones inhibition by little substance.
